From patent US20230192661A1, “1, 4, 5, 6-TETRAHYDROPYRIMIDINE-2-AMINE DERIVATIVE” (UBE Corporation, priority 2020, published 2023)

What was measured:
[1] = tested on: Human hepatic stellate cells; assay: Active human hepatic stellate cell dedifferentiation test (decrease in ACTA2 mRNA expression); assay type: cell-based; settings: 3 days differentiation then 2 days with compound, read-out: IC50 (rate of decrease in ACTA2 mRNA expression)
How it was run: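 Human hepatic stellate cells differentiated 3 days in DMEM/10% FBS, then exposed to compound for 2 days (0.1% DMSO final) at 37° C. ACTA2 mRNA measured by RT-qPCR, normalized to GAPDH (comparative Ct). Decrease scaled between DMSO (100%) and start-of-differentiation cells (0%); IC50 derived from it.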

[2] = Transcellular transport test using Caco2 cell; assay type: in vitro ADME; settings: human, Caco-2; Caco2 monolayer, A-to-B, 10 μM compound, pH 7.4, 90 minutes
How it was run: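 Caco2 monolayers grown 20 to 22 days on 0.4 μm polycarbonate inserts; 10 μM compound (0.1% DMSO) added apically in HBSS/20 mM HEPES pH 7.4, 90 min at 37° C. Basolateral compound quantified by LC-MS/MS; A-to-B Papp computed from transport slope, membrane area and UV-HPLC-measured donor concentration.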

Structure (SMILES)	IC50 [1] [µM]	Papp A→B at 90 min, 10 μM [2] [×10⁻⁶ cm/s]
O=C(O)C[C@H](NC(=O)CNC(=O)c1cc(NC2=NCC(F)CN2)c2cn[nH]c2c1)c1cccc(Cl)c1 (stereo partly drawn) [Example 41-(b), (3S)-3-(3-chlorophenyl)-3-(2-(4-((5-fluoro-1,4,5,6-tetrahydropyrimidin-2-yl)amino)-1H-indazole-6-carboxamido)acetamido)propanoic acid]	0.01 to 0.05	> 1
O=C(O)C[C@H](NC(=O)CNC(=O)c1cc(NC2=NCC(F)CN2)c2cn[nH]c2c1)c1cccc(Br)c1 (stereo partly drawn) [Example 42-(b), (3S)-3-(3-bromophenyl)-3-(2-(4-((5-fluoro-1,4,5,6-tetrahydropyrimidin-2-yl)amino)-1H-indazole-6-carboxamido)acetamido)propanoic acid]	0.01 to 0.05	> 1
O=C(O)C[C@H](NC(=O)CNC(=O)c1cc(NC2=NCC(F)CN2)c2cn[nH]c2c1)c1cccc(-n2cccn2)c1 (stereo partly drawn) [Example 43-(b), (3S)-3-(3-(1H-pyrazol-1-yl)phenyl)-3-(2-(4-((5-fluoro-1,4,5,6-tetrahydropyrimidin-2-yl)amino)-1H-indazole-6-carboxamido)acetamido)propanoic acid]	0.01 to 0.05	> 1
O=C(O)C[C@H](NC(=O)CNC(=O)c1cc(NC2=NCC(F)CN2)c2c(F)n[nH]c2c1)c1cc(Cl)cc(C(F)(F)F)c1 (stereo partly drawn) [Example 48-(b), (3S)-3-(3-chloro-5-(trifluoromethyl)phenyl)-3-(2-(3-fluoro-4-((5-fluoro-1,4,5,6-tetrahydropyrimidin-2-yl)amino)-1H-indazole-6-carboxamido)acetamido) propanoic acid]	< 0.01	> 1
O=C(O)C[C@H](NC(=O)CNC(=O)c1cc(NC2=NCC(F)CN2)c2c(Cl)n[nH]c2c1)c1cc(Cl)cc(C(F)(F)F)c1 (stereo partly drawn) [Example 49-(b), (3S)-3-(2-(3-chloro-4-((5-fluoro-1,4,5,6-tetrahydropyrimidin-2-yl)amino)-1H-indazole-6-carboxamido)acetamido)-3-(3-chloro-5-(trifluoromethyl)phenyl)propanoic acid]	< 0.01	0.5 to 1
O=C(O)C[C@H](NC(=O)CNC(=O)c1cc(NC2=NCC(F)CN2)cc2[nH]ncc12)c1cc(Cl)cc(C(F)(F)F)c1 (stereo partly drawn) [Example 52-(b), (3S)-3-(3-chloro-5-(trifluoromethyl)phenyl)-3-(2-(6-((5-fluoro-1,4,5,6-tetrahydropyrimidin-2-yl)amino)-1H-indazole-4-carboxamido)acetamido)propanoic acid]	0.01 to 0.05	0.1 to 0.5
O=C(O)C[C@H](NC(=O)CNC(=O)c1cc(NC2=NCC(F)CN2)cc2[nH]ncc12)c1cc(Br)cc(C(F)(F)F)c1 (stereo partly drawn) [Example 53-(b), (3S)-3-(3-bromo-5-(trifluoromethyl)phenyl)-3-(2-(6-((5-fluoro-1,4,5,6-tetrahydropyrimidin-2-yl)amino)-1H-indazole-4-carboxamido)acetamido)propanoic acid]	0.01 to 0.05	0.1 to 0.5
O=C(O)C[C@H](NC(=O)CNC(=O)c1cc(NC2=NCC(F)CN2)cc2[nH]ncc12)c1cc(I)cc(C(F)(F)F)c1 (stereo partly drawn) [Example 54-(b), (3S)-3-(2-(6-((5-fluoro-1,4,5,6-tetrahydropyrimidin-2-yl)amino)-1H-indazole-4-carboxamido)acetamido)-3-(3-iodo-5-(trifluoromethyl)phenyl)propanoic acid]	0.01 to 0.05	0.1 to 0.5
O=C(O)C[C@H](NC(=O)CNC(=O)c1cc(NC2=NCC(F)CN2)cc2[nH]ncc12)c1ccc(F)c(C(F)(F)F)c1 (stereo partly drawn) [Example 55-(b), (3S)-3-(2-(6-((5-fluoro-1,4,5,6-tetrahydropyrimidin-2-yl)amino)-1H-indazole-4-carboxamido)acetamido)-3-(4-fluoro-3-(trifluoromethyl)phenyl)propanoic acid]	< 0.01	0.1 to 0.5
O=C(O)C[C@H](NC(=O)CNC(=O)c1cc(NC2=NCC(F)CN2)cc2[nH]ncc12)c1cccc(C(F)(F)F)c1 (stereo partly drawn) [Example 56-(b), (3S)-3-(2-(6-((5-fluoro-1,4,5,6-tetrahydropyrimidin-2-yl)amino)-1H-indazole-4-carboxamido)acetamido)-3-(3-(trifluoromethyl)phenyl)propanoic acid]	< 0.01	0.1 to 0.5
